Reference: patent publication US20030077628A1, “Method of screening compounds for biological activity” (priority 2002, published 2003)

Target: receptor B-subunit derived from the Escherichia coli O157 toxin (Bacteriophage H30, UniProt P69178)
Format: binding
Conditions: pH 7

receptor B-subunit derived from the Escherichia coli O157 toxin, sequence (P69178 21-89 limits assumed): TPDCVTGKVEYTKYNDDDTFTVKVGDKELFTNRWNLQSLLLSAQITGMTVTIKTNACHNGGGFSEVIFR

SMILES: OC[C@H]1O[C@H](O[C@@H]2[C@H](O)[C@@H](O)[C@H](O[C@H]3[C@H](O)[C@@H](O)C(O)O[C@@H]3CO)O[C@@H]2CO)[C@H](O)[C@@H](O)[C@H]1O (some centres unmarked) [Galα1-4Galβ1-4Glc]
- change of ligand resonances (one-bond 13C-1H splittings) in the presence of the receptor: shifted

SMILES: OC[C@H]1O[C@@H](O[C@H]2[C@H](O)[C@@H](O)C(O)O[C@@H]2CO)[C@H](O)[C@@H](O)[C@H]1O (some centres unmarked) [Galβ1-4Glc, lactose]
- change of ligand resonances (one-bond 13C-1H splittings) in the presence of the receptor: unchanged
